39 compounds from patent US10144706B2 (BRISTOL-MYERS SQUIBB COMPANY, priority 2016, dated 2018) can be followed below.

T1 sequence (Q9NZQ7 with tags, fused parts or gaps): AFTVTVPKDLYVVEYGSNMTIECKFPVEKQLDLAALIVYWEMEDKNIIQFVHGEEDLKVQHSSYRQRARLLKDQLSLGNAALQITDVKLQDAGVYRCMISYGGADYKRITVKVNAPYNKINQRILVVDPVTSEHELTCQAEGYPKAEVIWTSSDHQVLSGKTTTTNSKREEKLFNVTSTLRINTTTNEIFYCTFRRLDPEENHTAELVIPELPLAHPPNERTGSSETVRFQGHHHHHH

The first assay addresses T1, PD-1/PD-L1 interaction (PD-1-Ig / PD-L1-His) (Homo sapiens, UniProt Q9NZQ7).
T1 construct: hPDL1(18-239)-TVMV-His; TVMV protease site linker (C); made in house; host or cells: HEK293T
Description: PD-1/PD-L1 Homogenous Time-Resolved Fluorescence (HTRF) binding assay. The settings on record: IC50 range class; PD-L1-His 10 nM, PD-1-Ig 20 nM; read-out: Range or IC50. The procedure, abridged:
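Human PD-L1-His (10 nM final) was pre-incubated with inhibitor for 15 min, then PD-1-Ig (20 nM final) was added for a further 15 min in dPBS with 0.1% BSA and 0.05% Tween-20. Binding was detected by HTRF using Eu-cryptate anti-Ig (1 nM) and APC anti-His (20 nM).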
(TR-FRET usually uses a lanthanide donor and a delayed reading to cut background.)
In general, IC50 refers to the concentration that gives 50% inhibition. On to `Cc1c(COc2cc(OCc3cncc(C#N)c3)c(CNC/C=C/C(=O)O)cc2Cl)cccc1-c1cccc(COc2cc(OCc3cncc(C#N)c3)c(CNC/C=C/C(=O)O)cc2Cl)c1C` [Example 40280], for which the IC50 fell in the range of 0.04 to 20 nM.

As for `COC(=O)[C@@H]1CCCCN1Cc1cc(Cl)c(OCc2cccc(-c3cccc(COc4cc(OCc5cncc(C#N)c5)c(CN5CCCC[C@H]5C(=O)OC)cc4Cl)c3C)c2C)cc1OCc1cncc(C#N)c1` [Example 40300], the IC50 lay within 90.1 to 1000 nM.

In the case of `COC(=O)C1CCN(Cc2cc(Cl)c(OCc3cccc(-c4cccc(COc5cc(OCc6cncc(C#N)c6)c(CN6CCC(C(=O)OC)C(O)C6)cc5Cl)c4C)c3C)cc2OCc2cncc(C#N)c2)CC1O` (stereo not drawn) [Example 40310], the IC50 was 20.1 to 90 nM.

With `COC[C@H](NCc1cc(Cl)c(OCc2cccc(-c3cccc(COc4cc(OCc5cncc(C#N)c5)c(CN[C@@H](COC)C(=O)O)cc4Cl)c3C)c2C)cc1OCc1cncc(C#N)c1)C(=O)O` [Example 40340], the IC50 lay within 0.04 to 20 nM.

As to `Cc1c(COc2cc(OCc3cncc(C#N)c3)c(CN3CCC[C@H]3C(=O)O)cc2Cl)cccc1-c1cccc(COc2cc(OCc3cncc(C#N)c3)c(CN3CCC[C@H]3C(=O)O)cc2Cl)c1C` [Example 40350], the IC50 lay within 0.04 to 20 nM.

Regarding `Cc1c(COc2cc(OCc3cncc(C#N)c3)c(CN[C@H](C(=O)O)c3ccccc3)cc2Cl)cccc1-c1cccc(COc2cc(OCc3cncc(C#N)c3)c(CN[C@H](C(=O)O)c3ccccc3)cc2Cl)c1C` [Example 40360], the IC50 was 0.04 to 20 nM.

Regarding `Cc1c(COc2cc(OCc3cncc(C#N)c3)c(CN3CCOC[C@@H]3C(=O)O)cc2Cl)cccc1-c1cccc(COc2cc(OCc3cncc(C#N)c3)c(CN3CCOC[C@@H]3C(=O)O)cc2Cl)c1C` [Example 40370], the IC50 lay in the range of 0.04 to 20 nM.

In the case of `Cc1c(COc2cc(OCc3cncc(C#N)c3)c(CN3CCCC(C(=O)O)C3)cc2Cl)cccc1-c1cccc(COc2cc(OCc3cncc(C#N)c3)c(CN3CCCC(C(=O)O)C3)cc2Cl)c1C` (stereo not drawn) [Example 40380], the IC50 lay in the range of 0.04 to 20 nM.

As to `Cc1c(COc2cc(OCc3cncc(C#N)c3)c(CNC(CC(=O)O)c3ccc(F)cc3)cc2Cl)cccc1-c1cccc(COc2cc(OCc3cncc(C#N)c3)c(CNC(CC(=O)O)c3ccc(F)cc3)cc2Cl)c1C` (stereo not drawn) [Example 40390], the IC50 was 20.1 to 90 nM.

For the compound `Cc1c(COc2cc(OCc3cncc(C#N)c3)c(CNC(C)CC(=O)O)cc2Cl)cccc1-c1cccc(COc2cc(OCc3cncc(C#N)c3)c(CNC(C)CC(=O)O)cc2Cl)c1C` (stereo not drawn) [Example 40400], the IC50 lay within 0.04 to 20 nM.

For the compound `Cc1c(COc2cc(OCc3cncc(C#N)c3)c(CNCCC(=O)O)cc2Cl)cccc1-c1cccc(COc2cc(OCc3cncc(C#N)c3)c(CNCCC(=O)O)cc2Cl)c1C` [Example 40410], the IC50 was 0.04 to 20 nM.

As to `Cc1c(COc2cc(OCc3cncc(C#N)c3)c(CN3CC(C(=O)O)C3)cc2Cl)cccc1-c1cccc(COc2cc(OCc3cncc(C#N)c3)c(CN3CC(C(=O)O)C3)cc2Cl)c1C` [Example 40420], the IC50 was in the range of 0.04 to 20 nM.

For `Cc1c(COc2cc(OCc3cncc(C#N)c3)c(CN3C[C@@H](C)C[C@H]3C(=O)O)cc2Cl)cccc1-c1cccc(COc2cc(OCc3cncc(C#N)c3)c(CN3C[C@@H](C)C[C@H]3C(=O)O)cc2Cl)c1C` [Example 40430], the IC50 was 0.04 to 20 nM.

Take `Cc1c(COc2cc(OCc3cncc(C#N)c3)c(CNC(C(=O)O)C(C)C)cc2Cl)cccc1-c1cccc(COc2cc(OCc3cncc(C#N)c3)c(CNC(C(=O)O)C(C)C)cc2Cl)c1C` (stereo not drawn) [Example 40440]: the IC50 was in the range of 0.04 to 20 nM.

As to `CSCCC(NCc1cc(Cl)c(OCc2cccc(-c3cccc(COc4cc(OCc5cncc(C#N)c5)c(CNC(CCSC)C(=O)O)cc4Cl)c3C)c2C)cc1OCc1cncc(C#N)c1)C(=O)O` (stereo not drawn) [Example 40450], the IC50 lay within 0.04 to 20 nM.

As to `Cc1c(COc2cc(OCc3cncc(C#N)c3)c(CNC(Cc3c[nH]c4ccccc34)C(=O)O)cc2Cl)cccc1-c1cccc(COc2cc(OCc3cncc(C#N)c3)c(CNC(Cc3c[nH]c4ccccc34)C(=O)O)cc2Cl)c1C` (stereo not drawn) [Example 40460], the IC50 was 0.04 to 20 nM.

In the case of `Cc1c(COc2cc(OCc3cncc(C#N)c3)c(CN[C@@H](CC#N)C(=O)O)cc2Cl)cccc1-c1cccc(COc2cc(OCc3cncc(C#N)c3)c(CN[C@@H](CC#N)C(=O)O)cc2Cl)c1C` [Example 40470], the IC50 is 0.04 to 20 nM.

In the case of `Cc1c(COc2cc(OCc3cncc(C#N)c3)c(CNC(Cc3ccccc3)C(=O)O)cc2Cl)cccc1-c1cccc(COc2cc(OCc3cncc(C#N)c3)c(CNC(Cc3ccccc3)C(=O)O)cc2Cl)c1C` (stereo not drawn) [Example 40480], the IC50 lay within 0.04 to 20 nM.

In the case of `Cc1c(COc2cc(OCc3cncc(C#N)c3)c(CN3CCC[C@H](C(=O)O)C3)cc2Cl)cccc1-c1cccc(COc2cc(OCc3cncc(C#N)c3)c(CN3CCC[C@H](C(=O)O)C3)cc2Cl)c1C` [Example 40490], the IC50 is 0.04 to 20 nM.

Take `Cc1c(COc2cc(OCc3cncc(C#N)c3)c(CNC[C@H](C)C(=O)O)cc2Cl)cccc1-c1cccc(COc2cc(OCc3cncc(C#N)c3)c(CNC[C@H](C)C(=O)O)cc2Cl)c1C` [Example 40500]: the IC50 was 0.04 to 20 nM.

Turning to `Cc1c(COc2cc(OCc3cncc(C#N)c3)c(CNC3CCC[C@@H]3C(=O)O)cc2Cl)cccc1-c1cccc(COc2cc(OCc3cncc(C#N)c3)c(CN[C@@H]3CCC[C@@H]3C(=O)O)cc2Cl)c1C` (stereo partly drawn) [Example 40510], the concentration for half-maximal inhibition (IC50) fell in the range of 0.04 to 20 nM.

`Cc1c(COc2cc(OCc3cncc(C#N)c3)c(CN3CC(C(=O)O)C(c4ccccc4Cl)C3)cc2Cl)cccc1-c1cccc(COc2cc(OCc3cncc(C#N)c3)c(CN3CC(C(=O)O)C(c4ccccc4Cl)C3)cc2Cl)c1C` (stereo not drawn) [Example 40520]: the IC50 is 90.1 to 1000 nM.

Turning to `Cc1c(COc2cc(OCc3cncc(C#N)c3)c(CN[C@H](CC(=O)O)Cc3ccc(I)cc3)cc2Cl)cccc1-c1cccc(COc2cc(OCc3cncc(C#N)c3)c(CN[C@H](CC(=O)O)Cc3ccc(I)cc3)cc2Cl)c1C` [Example 40530], the IC50 lay in the range of 90.1 to 1000 nM.

On to `Cc1c(COc2cc(OCc3cncc(C#N)c3)c(CNC(Cc3ccccc3)C(N)=O)cc2Cl)cccc1-c1cccc(COc2cc(OCc3cncc(C#N)c3)c(CNC(Cc3ccccc3)C(N)=O)cc2Cl)c1C` (stereo not drawn) [Example 40590], for which the IC50 lay in the range of 90.1 to 1000 nM.

Regarding `Cc1c(COc2cc(OCc3cncc(C#N)c3)c(CN[C@@H](Cc3cnc[nH]3)C(N)=O)cc2Cl)cccc1-c1cccc(COc2cc(OCc3cncc(C#N)c3)c(CN[C@@H](Cc3cnc[nH]3)C(N)=O)cc2Cl)c1C` [Example 40620], the IC50 is 20.1 to 90 nM.

For the compound `Cc1c(COc2cc(OCc3cncc(C#N)c3)c(CN[C@H](C(N)=O)C3CC3)cc2Cl)cccc1-c1cccc(COc2cc(OCc3cncc(C#N)c3)c(CN[C@H](C(N)=O)C3CC3)cc2Cl)c1C` [Example 40670], the IC50 fell in the range of 20.1 to 90 nM.

For the compound `Cc1c(COc2cc(OCc3cncc(C#N)c3)c(CN3CCC[C@H]3C(N)=O)cc2Cl)cccc1-c1cccc(COc2cc(OCc3cncc(C#N)c3)c(CN3CCC[C@H]3C(N)=O)cc2Cl)c1C` [Example 40680], the IC50 lay in the range of 90.1 to 1000 nM.

For `Cc1c(COc2cc(OCc3cncc(C#N)c3)c(CN3CCC[C@@H]3C(N)=O)cc2Cl)cccc1-c1cccc(COc2cc(OCc3cncc(C#N)c3)c(CN3CCC[C@@H]3C(N)=O)cc2Cl)c1C` [Example 40690], the IC50 lay in the range of 90.1 to 1000 nM.

Consider `Cc1c(COc2cc(OCc3cncc(C#N)c3)c(CN[C@@H](Cc3c[nH]c4ccccc34)C(=O)O)cc2Cl)cccc1-c1cccc(COc2cc(OCc3cncc(C#N)c3)c(CN[C@@H](Cc3c[nH]c4ccccc34)C(=O)O)cc2Cl)c1C` [Example 40700], for which the IC50 lay in the range of 0.04 to 20 nM.

On to `COC(=O)CC(O)CNCc1cc(Cl)c(OCc2cccc(-c3cccc(COc4cc(OCc5cncc(C#N)c5)c(CNCC(O)CC(=O)OC)cc4Cl)c3C)c2C)cc1OCc1cncc(C#N)c1` (stereo not drawn) [Example 40710], for which the IC50 fell in the range of 0.04 to 20 nM.

Regarding `COC(=O)CC(O)CNCc1cc(Cl)c(OCc2cccc(-c3cccc(COc4cc(OCc5cncc(C#N)c5)c(CNC/C=C\C(=O)O)cc4Cl)c3C)c2C)cc1OCc1cncc(C#N)c1` (stereo not drawn) [Example 40720], the IC50 is 20.1 to 90 nM.

Regarding `Cc1c(COc2cc(OCc3cncc(C#N)c3)c(CN[C@@H](CCO)C(=O)O)cc2Cl)cccc1-c1cccc(COc2cc(OCc3cncc(C#N)c3)c(CN[C@@H](CCO)C(=O)O)cc2Cl)c1C` [Example 40740], the IC50 fell in the range of 0.04 to 20 nM.

Take `CCCN(Cc1cc(Cl)c(OCc2cccc(-c3cccc(COc4cc(OCc5cncc(C#N)c5)c(CN(CCC)[C@@H](CCO)C(=O)O)cc4Cl)c3C)c2C)cc1OCc1cncc(C#N)c1)[C@@H](CCO)C(=O)O` [Example 40750]: the IC50 fell in the range of 0.04 to 20 nM.

`Cc1c(COc2cc(OCc3cncc(C#N)c3)c(CN(C)[C@@H](CCO)C(=O)O)cc2Cl)cccc1-c1cccc(COc2cc(OCc3cncc(C#N)c3)c(CN(C)[C@@H](CCO)C(=O)O)cc2Cl)c1C` [Example 40760]: the IC50 was 0.04 to 20 nM.

Consider `COCCC(NCc1cc(Cl)c(OCc2cccc(-c3cccc(COc4cc(OCc5cncc(C#N)c5)c(CNC(CCOC)C(=O)O)cc4Cl)c3C)c2C)cc1OCc1cncc(C#N)c1)C(=O)O` (stereo not drawn) [Example 40780], for which the IC50 was in the range of 0.04 to 20 nM.

Turning to `CCN(Cc1cc(Cl)c(OCc2cccc(-c3cccc(COc4cc(OCc5cncc(C#N)c5)c(CN(CC)C(CCO)C(=O)O)cc4Cl)c3C)c2C)cc1OCc1cncc(C#N)c1)C(CCO)C(=O)O` (stereo not drawn) [Example 40800], the IC50 lay in the range of 0.04 to 20 nM.

The assay is the same for the next values; noted with them: numeric IC50; PD-L1-His 10 nM, PD-1-Ig 20 nM; read-out: Range or IC50.
With `COC(=O)CC(CC(C)C)NCc1cc(Cl)c(OCc2cccc(-c3cccc(COc4cc(OCc5cncc(C#N)c5)c(CNC(CC(=O)OC)CC(C)C)cc4Cl)c3C)c2C)cc1OCc1cncc(C#N)c1` (stereo not drawn) [Example 40550], the IC50 came out at 9220 nM.

Turning to `Cc1c(COc2cc(OCc3cncc(C#N)c3)c(CNC/C=C\C(=O)O)cc2Cl)cccc1-c1cccc(COc2cc(OCc3cncc(C#N)c3)c(CNC/C=C\C(=O)O)cc2Cl)c1C` [Example 40730], the IC50 worked out at 22 nM.

On to `Cc1c(COc2cc(OCc3cncc(C#N)c3)c(CN[C@@H](CCO)C(=O)O)cc2Cl)cccc1-c1cccc(COc2cc(OCc3cncc(C#N)c3)c(CN[C@H](CCO)C(=O)O)cc2Cl)c1C` [Example 40770], for which the IC50 is 0.04 nM.
